Measured values reported in PMC5041982, “Small-molecule inhibition of STAT3 in radioresistant head and neck squamous cell carcinoma” (Oncotarget, 2016).
Several values for one entry are separate records, joined by “and”; a condition that tells them apart may be missing. Identical values can stand only once. Like-named read-outs stand apart in the source and are kept apart here.

Assays:
[1] = tested on: pSTAT3; conditions: read-out: IC50 inhibition of cytokine-induced pSTAT3 levels; cited from earlier work
[2] = tested on: tumor cells; conditions: read-out: IC50 killing of tumor cells; cited from earlier work
[3] = molecular target: T1, STAT3 (Homo sapiens, UniProt P40763); parameters: method as in PMID 17114005; conditions: read-out: IC50 inhibition of STAT3 binding to pY-peptide; cited from earlier work
T1 sequence (P40763 whole entry, species assumed): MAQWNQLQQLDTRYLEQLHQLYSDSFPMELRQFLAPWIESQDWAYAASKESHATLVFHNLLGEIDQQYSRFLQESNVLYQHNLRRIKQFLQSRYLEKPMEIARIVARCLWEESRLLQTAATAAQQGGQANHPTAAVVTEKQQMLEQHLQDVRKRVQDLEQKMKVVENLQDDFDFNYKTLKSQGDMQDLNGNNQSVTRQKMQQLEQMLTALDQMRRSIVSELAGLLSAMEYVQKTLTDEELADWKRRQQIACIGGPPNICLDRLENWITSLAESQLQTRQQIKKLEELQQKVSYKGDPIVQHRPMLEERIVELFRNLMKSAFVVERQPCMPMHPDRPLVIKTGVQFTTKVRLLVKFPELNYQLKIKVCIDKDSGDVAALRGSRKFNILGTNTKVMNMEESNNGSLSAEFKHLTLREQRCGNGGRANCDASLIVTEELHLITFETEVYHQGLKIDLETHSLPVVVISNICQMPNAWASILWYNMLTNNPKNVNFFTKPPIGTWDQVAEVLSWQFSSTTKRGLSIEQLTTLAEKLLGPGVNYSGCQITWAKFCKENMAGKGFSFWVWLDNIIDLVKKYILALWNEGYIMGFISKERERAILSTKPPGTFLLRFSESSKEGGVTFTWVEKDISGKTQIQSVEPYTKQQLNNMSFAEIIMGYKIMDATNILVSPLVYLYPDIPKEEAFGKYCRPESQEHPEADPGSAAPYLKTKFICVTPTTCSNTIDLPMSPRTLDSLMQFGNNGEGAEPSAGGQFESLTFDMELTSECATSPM

[4] = molecular target: T2, pSTAT1 (Tyr-701) (Homo sapiens, UniProt P42224); assay: Phosphoflow, IFN-γ-induced pSTAT1 in Kasumi-1 cells; type: cell-based; conditions: Kasumi-1, IFN-γ 10 ng/ml 15 min; mean, n ≥ 2; read-out: Ligand Induced Phosphorylation (Phosphoflow) pSTAT1 (IFN-γ) IC50
T2 construct: endogenous in cells; host or cells: Kasumi-1
T2 sequence (P42224 1-750): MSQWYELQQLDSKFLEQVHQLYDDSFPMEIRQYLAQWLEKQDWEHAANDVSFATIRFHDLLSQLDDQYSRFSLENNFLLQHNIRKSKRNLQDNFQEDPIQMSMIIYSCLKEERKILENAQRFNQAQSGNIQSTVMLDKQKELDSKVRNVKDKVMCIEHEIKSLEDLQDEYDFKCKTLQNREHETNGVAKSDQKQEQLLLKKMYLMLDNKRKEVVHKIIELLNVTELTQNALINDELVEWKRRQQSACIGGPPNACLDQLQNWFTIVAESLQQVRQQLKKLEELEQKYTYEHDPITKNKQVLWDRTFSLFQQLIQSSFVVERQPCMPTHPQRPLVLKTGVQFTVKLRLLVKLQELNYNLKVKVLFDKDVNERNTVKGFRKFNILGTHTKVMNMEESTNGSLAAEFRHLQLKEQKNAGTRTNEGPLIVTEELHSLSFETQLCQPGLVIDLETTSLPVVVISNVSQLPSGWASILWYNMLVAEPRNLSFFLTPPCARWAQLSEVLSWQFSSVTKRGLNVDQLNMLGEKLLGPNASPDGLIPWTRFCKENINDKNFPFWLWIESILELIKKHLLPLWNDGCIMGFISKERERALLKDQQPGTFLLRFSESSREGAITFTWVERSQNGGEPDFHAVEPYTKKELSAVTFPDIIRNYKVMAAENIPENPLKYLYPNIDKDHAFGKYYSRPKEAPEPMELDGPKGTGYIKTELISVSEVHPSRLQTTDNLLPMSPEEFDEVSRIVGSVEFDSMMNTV
Experimental: (§1) The equilibrium binding levels obtained ± compound were normalized (resonance obtained in the presence of compound ÷ the resonance obtained in the absence of compound × 100) and plotted against Log [nM] […] B. Inhibition of ligand-stimulated STAT phosphorylation, measured by phosphoflow. Serum-starved (1 hour) Kasumi-1 cells, pre-incubated with compound/DMSO (1 hour), were treated with G-CSF (10 ng/ml, 15 min, left two panels) or IFN-γ (10ng/ml, 15 min, right panel). Cells were permeabilized and stained with Alexa647-pSTAT3, and PE-pSTAT1 antibodies and analyzed on BD LSR2. FCS files were uploaded to Cytobank for pSTAT3 and pSTAT1 quantitation. Histograms depicting pSTAT3 and pSTAT1 levels are shown. C. Mean fluorescence (pSTAT3/1) levels were plotted as function the Log [M] compound, and IC50 calculated using GraphPad. […] D. Inhibition of ligand-stimulated STAT phosphorylation, measured by Luminex. Serum-starved (1 hour) Kasumi-1 cells, pre-incubated with compound/DMSO (0/0.1/0.3/1/3/10/100 μM, 1 hour), were treated with G-CSF (10 ng/ml, 15′). Total protein extracts of cells were assayed for pSTAT3, pSTAT1, and GAPDH levels by Luminex. GAPDH-normalized pSTAT3 or pSTAT1 values were divided by this ratio for untreated cells and expressed in percentage. These values were plotted as a function of Log [M] compound, and IC50 values calculated using GraphPad.
(§2) Phosphoflow analysis was done as described in Xu et al. Briefly, Kasumi-1 cells, were serum-starved, pre-treated with compound or DMSO (1 hour, RT) and then stimulated with 20 μl of GCSF (10 ng/ml) for 15 minutes at 37°C. The cells were then permeabilized and stained with Alexa647-pSTAT3, Alexa488-pSTAT5 and PE-pSTAT1 antibodies and analyzed using the BD LSR2. FCS files were exported and uploaded to Cytobank for determination of phosphoproteins as earlier. Gating was done on live, single cells and then gates selected for positive ligand-activated pSTAT3 and pSTAT1. IC50 values were calculated using the GraphPad Prism.

[5] = molecular target: T1, STAT3; assay: STAT3/pY-peptide binding surface plasmon resonance (SPR) assay; conditions: for Inhibition of STAT3 binding to pY-peptide compared with C188: SPR; for IC50: STAT3 200 nM, EGFR pY1068 dodecapeptide, mean, n ≥ 2, read-out: pY-Peptide Binding (SPR) IC50
Experimental: The equilibrium binding levels obtained ± compound were normalized (resonance obtained in the presence of compound ÷ the resonance obtained in the absence of compound × 100) and plotted against Log [nM] […] B. Inhibition of ligand-stimulated STAT phosphorylation, measured by phosphoflow. Serum-starved (1 hour) Kasumi-1 cells, pre-incubated with compound/DMSO (1 hour), were treated with G-CSF (10 ng/ml, 15 min, left two panels) or IFN-γ (10ng/ml, 15 min, right panel). Cells were permeabilized and stained with Alexa647-pSTAT3, and PE-pSTAT1 antibodies and analyzed on BD LSR2. FCS files were uploaded to Cytobank for pSTAT3 and pSTAT1 quantitation. Histograms depicting pSTAT3 and pSTAT1 levels are shown. C. Mean fluorescence (pSTAT3/1) levels were plotted as function the Log [M] compound, and IC50 calculated using GraphPad. […] D. Inhibition of ligand-stimulated STAT phosphorylation, measured by Luminex. Serum-starved (1 hour) Kasumi-1 cells, pre-incubated with compound/DMSO (0/0.1/0.3/1/3/10/100 μM, 1 hour), were treated with G-CSF (10 ng/ml, 15′). Total protein extracts of cells were assayed for pSTAT3, pSTAT1, and GAPDH levels by Luminex. GAPDH-normalized pSTAT3 or pSTAT1 values were divided by this ratio for untreated cells and expressed in percentage. These values were plotted as a function of Log [M] compound, and IC50 values calculated using GraphPad. […]
3-D pharmacophore sorting used to evaluate the effect of each compound on STAT3 binding. Responses were normalized by dividing the […]
fingerprint screening were converted into 3-D structures compounds at 2 min and multiplying by 100. IC values […]
for analysis as described below. were determined by plotting % maximum response as a 3-D pharmacophore generation function of log concentration of compound and fitting the Each molecular chemical feature, including experimental points to a competitive binding model using hydrogen bond donor, hydrogen bond acceptor, positive a four parameter logistic equation: R = Rhigh − (Rhigh − R low)/ (1 + conc/A1)^A2, where R = percent response at and negative ionizable group, and hydrophobic region, inhibitor concentration, R = percent response with no was generated using the LigandScout application compound, R= percent response at highest compound high framework and projected into 3-D space. concentration, A2 = fitting parameter (slope) and A1 = low Feature-pairing IC50 (BIAevaluation Software version 4.1). The inhibition Each chemical feature was converted into distance constant (Ki) was derived from the Cheng-Prusoff bin and the complete set of distance bins used to construct equation Ki=IC50/(1+[C]/Kd) as used by Halling et al a cost matrix. The most favorable pairing based on cost where C stands for STAT3 concentration used in the SPR matrix was identified. assay and Kd denotes the dissociation constant for STAT3 3-D pharmacophore transformation binding to its phosphorylated EGFR ligand in the SPR […]
STAT3/pY-peptide binding assay and total protein extracted from cell pellets. […]
STAT3 binding assays were performed at 25 °C (Millipore, Danvers, MA) coupled to antibody against

[6] = tested on: pSTAT5; assay: Phosphoflow, G-CSF-induced pSTAT5 in Kasumi-1 cells; type: cell-based; conditions: mean, n ≥ 2, read-out: Ligand Induced Phosphorylation (Phosphoflow) pSTAT5 (G-CSF) IC50
Experimental: as §2

[7] = tested on: normal murine bone marrow colony formation; assay: Normal murine bone marrow colony formation; type: cell-based; conditions: studies not shown (Tweardy et al 2010, unpublished)
[8] = molecular target: T3, pSTAT3 (Tyr-705) (Homo sapiens, UniProt P40763); assay: Phosphoflow, G-CSF-induced STAT3 phosphorylation in Kasumi-1 cells; type: cell-based; conditions: Kasumi-1, G-CSF 10 ng/ml 15 min; mean, n ≥ 2; read-out: Ligand Induced Phosphorylation (Phosphoflow) pSTAT3 (GCSF) IC50
T3 construct: endogenous in cells; host or cells: Kasumi-1
T3 sequence (P40763 whole entry): as the sequence (P40763 whole entry, species assumed) above
Experimental: as §1, §2

[9] = molecular target: T1, STAT3; parameters: method as in PMID 24308725; conditions: read-out: IC50 inhibition of STAT3 in a luciferase reporter assay; cited from earlier work

IC50 [4] [µM] | Inhibition of STAT3 binding to pY-peptide compared with C188 [5] | IC50 [5] | IC50 [6] [µM] | Inhibition of normal murine bone marrow colony formation [7] | IC50 [8] [µM] | SMILES | IC50 [1] [µM] | IC50 [2] [µM] | IC50 [3] [µM] | IC50 [9] [µM]
> 300 | improved inhibition | 3.5 ± 0.7 µM | > 300 | – | > 300 | Cc1cc(C)c(S(=O)(=O)Nc2cc(Sc3nc[nH]n3)c(O)c3ccccc23)cc1C [Compound C188-18] | – | – | – | –
35 ± 39.6 | improved inhibition | 4.7 ± 2.1 µM | > 300 | inhibited | 10.5 ± 13.4 | CC(C)OC(=O)C(C(=O)C(F)(F)F)c1cc(NS(=O)(=O)c2ccc(F)cc2)c2ccccc2c1O (centres unmarked) [Compound C188-7] | – | – | – | –
51 | – | 20 ± 9.9 µM | 35 ± 29.7 | – | 29.8 ± 25.9 | Cc1ccc(S(=O)(=O)Nc2cc(Sc3nc4ccccc4s3)c(O)c3ccccc23)c(C)c1 [Compound C188-2] | – | – | – | –
> 300 | – | 24.5 ± 6.4 µM | > 300 | – | > 300 | CC(C)c1ccc(S(=O)(=O)Nc2cc3c4c(oc3c3ccccc23)CCCC4)cc1 [Compound C188-37] | – | – | – | –
> 300 | – | > 300 µM | > 300 | – | > 300 | CC(=O)Nc1ccc(S(=O)(=O)Nc2cccc3ccccc23)cc1 [Compound C188-23] | – | – | – | –
> 300 | improved inhibition | 5.5 ± 4.9 µM | > 300 | – | > 300 | COc1ccc(OC)c(S(=O)(=O)Nc2cc(Sc3ccccc3)c(O)c3ccccc23)c1 [Compound C188-19] | – | – | – | –
> 300 | – | 55 µM and 54.5 µM | > 300 | – | > 300 | CC(=O)c1c(C)oc2c1cc(NS(=O)(=O)c1cc(C)ccc1C)c1ccccc12 [Compound C188-11] | – | – | – | –

Continued, compound first:

SMILES | IC50 [4] [µM] | Inhibition of STAT3 binding to pY-peptide compared with C188 [5] | IC50 [5] | IC50 [6] [µM] | Inhibition of normal murine bone marrow colony formation [7] | IC50 [8] [µM] | IC50 [1] [µM] | IC50 [2] [µM] | IC50 [3] [µM] | IC50 [9] [µM]
COC(=O)[C@H](Cc1cn(C)cn1)NC(=O)[C@@H](NC(=O)Nc1cc(C(F)(F)F)cc(C(F)(F)F)c1)C(C)C [XZH-5] | – | – | – | – | – | – | 20 to 30 | – | – | –
NS(=O)(=O)c1cccc2c1C(=O)c1cccc(O)c1C2=O [LLL12] | – | – | – | – | – | – | – | ~5 | – | –
O=[N+]([O-])c1ccc2c(c1)S(=O)(=O)C=C2 [Stattic] | – | – | – | – | – | – | – | – | 5.1 | –
CC(C)OC(=O)C(C(=O)C(F)(F)F)c1cc(NS(=O)(=O)c2ccc3c4c(cccc24)C(=O)N3)c2ccccc2c1O (centres unmarked) [Compound C188-8] | 35 ± 25.2 | improved inhibition | 4.5 ± 2.1 µM | 23 | inhibited | 3.4 ± 0.9 | – | – | – | –
O=S(=O)(Nc1cc(Sc2nc[nH]n2)c(O)c2ccccc12)c1ccc(Br)cc1 [Compound C188-15] | – | improved inhibition | 1.5 ± 0.7 µM | 12 ± 1.4 | inhibited | 3.3 ± 0.2 | – | – | – | –
C[C@@H]1CC(=O)c2c(ccc3c2C(=O)c2cccc(O)c2C3=O)C1 [STA-21] | – | – | – | – | – | – | – | – | – | 12.2 to 18.7
Cc1cc(C)c(S(=O)(=O)Nc2cc(Cl)c(O)c3ccccc23)cc1C [Compound C188-10] | > 300 | activity similar to C188 | 8 ± 2.8 µM | > 300 | – | > 300 | – | – | – | –
Cc1cc(C)c(C)c(S(=O)(=O)Nc2cc(SCC(=O)O)c(O)c3ccccc23)c1C [Compound C188-14] | 57 | activity similar to C188 | 8.7 ± 9.1 µM | 10 | – | 40.3 ± 50.8 | – | – | – | –
Cc1cc(C)c(S(=O)(=O)Nc2cc(C(C(=O)OC(C)C)C(=O)C(F)(F)F)c(O)c3ccccc23)c(C)c1 (centres unmarked) [Compound C188-3] | 34.5 ± 10.6 | – | 17.3 ± 8.5 µM | 21 | – | 21.6 ± 11.1 | – | – | – | –
CC(C)(C)c1ccc(S(=O)(=O)Nc2cc3sc(=O)oc3c3ccccc23)cc1 [Compound C188-33] | 10 | – | 20 ± 4.2 µM | 6 | – | 7.9 ± 5.8 | – | – | – | –
